This note sets out measurements from patent US11059780B2, “Substituted pyrrolidine compound and use thereof” (Takeda Pharmaceutical Company Limited, priority 2017, dated 2021).

Molecules are shown by their SMILES.

The assay concerns the target T1, human orexin type 2 receptor (hOX2R) (Homo sapiens, UniProt O43614).
T1 construct: expressed in transfected cells
T1 sequence (O43614 1-444): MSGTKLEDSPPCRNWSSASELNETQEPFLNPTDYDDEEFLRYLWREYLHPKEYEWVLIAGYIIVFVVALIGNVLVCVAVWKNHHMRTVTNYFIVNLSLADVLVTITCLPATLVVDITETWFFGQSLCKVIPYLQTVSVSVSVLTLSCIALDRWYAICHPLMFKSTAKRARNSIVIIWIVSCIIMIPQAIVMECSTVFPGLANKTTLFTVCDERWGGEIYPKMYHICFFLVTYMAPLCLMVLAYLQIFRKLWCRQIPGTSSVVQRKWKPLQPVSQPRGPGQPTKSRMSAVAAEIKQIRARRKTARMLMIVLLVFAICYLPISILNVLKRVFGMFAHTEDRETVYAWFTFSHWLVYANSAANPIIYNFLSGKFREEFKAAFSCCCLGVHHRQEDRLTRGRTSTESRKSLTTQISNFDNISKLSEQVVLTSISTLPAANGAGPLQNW
Description: Measurement of orexin type 2 receptor agonist activity (Fluo-4 calcium fluorescence, CHO cells forcibly expressing human OX2 receptor). It is filed as cell-based. The note with it: test compound 3 μM, DMSO = 0%, orexin A (human) 10 nM = 100%. The procedure, abridged: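 CHO-dhfr cells stably expressing human OX2 receptor, loaded with Fluo-4 AM in HBSS/HEPES/BSA with probenecid, then given test compound at 3 μM. Calcium fluorescence recorded for about 2 min 40 s by FDSS; activity normalized to DMSO (0%) and 10 nM human orexin A (100%).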
Take `CO[C@@H]1CN(C(=O)c2cc(C)ccc2C)C[C@H]1Oc1cccc(CS(=O)(=O)N2CCC23CCN(C(=O)OC(C)(C)C)C3)c1` (relative stereo) [Example 33, tert-butyl trans-1-((3-((1-(2,5-dimethylbenzoyl)-4-methoxypyrrolidin-3-yl)oxy)benzyl)sulfonyl)-1,6-diazaspiro[3.4]octane-6-carboxylate]: the “OX2R agonist activity (3 μM, %)” value came to 105%.

For the compound `CO[C@@H]1CN(C(=O)c2c(C)cccc2C2CC2)C[C@H]1Oc1cccc(OS(=O)(=O)N2CCOCC2)c1` (relative stereo) [Example 166, trans-3-((1-(2-cyclopropyl-6-methylbenzoyl)-4-methoxypyrrolidin-3-yl)oxy)phenyl morpholine-4-sulfonate], the “OX2R agonist activity (3 μM, %)” value came out at 41%.

For the compound `CO[C@@H]1CN(C(=O)c2cc(C)ccc2C)C[C@H]1Oc1cccc(CS(=O)(=O)N2CCCC2Cc2cccnc2)c1` (relative stereo) [Example 36, trans-(2,5-dimethylphenyl)(3-methoxy-4-(3-(((2-(pyridin-3-ylmethyl)pyrrolidin-1-yl)sulfonyl)methyl)phenoxy)pyrrolidin-1-yl)methanone], the “OX2R agonist activity (3 μM, %)” value is 89%.

Turning to `COC1CN(C(=O)c2cc(C)ccc2C)CC1Oc1cccc(CS(=O)(=O)N2CCCC2c2ccccc2C)c1` (stereo not drawn) [Example 41, trans-(2,5-dimethylphenyl)(3-methoxy-4-(3-(((2-(2-methylphneyl)pyrrolidin-1-yl)sulfonyl)methyl)phenoxy)pyrrolidin-1-yl)methanone], the “OX2R agonist activity (3 μM, %)” value was found to be 75%.

Turning to `CO[C@@H]1CN(C(=O)c2cc(C)ccc2C)C[C@H]1Oc1cccc(CS(=O)(=O)N2CCCC2c2ncccn2)c1` (relative stereo) [Example 38, trans-(2,5-dimethylphenyl)(3-methoxy-4-(3-(((2-(pyrimidin-2-yl)pyrrolidin-1-yl)sulfonyl)methyl)phenoxy)pyrrolidin-1-yl)methanone], the “OX2R agonist activity (3 μM, %)” value is recorded as 98%.

For the compound `CO[C@@H]1CN(C(=O)c2cc(C)ccc2C)C[C@H]1Oc1cccc(CS(=O)(=O)N2CCC23CCOC3)c1` (relative stereo) [Example 19, trans-(2,5-dimethylphenyl)(3-methoxy-4-(3-((6-oxa-1-azaspiro[3.4]oct-1-ylsulfonyl)methyl)phenoxy)pyrrolidin-1-yl)methanone], the “OX2R agonist activity (3 μM, %)” value is 67%.

As for `CO[C@@H]1CN(C(=O)Oc2c(C)cccc2C)C[C@H]1Oc1cccc(NS(=O)(=O)N2CC3CC3C2)c1` (stereo partly drawn) [Example 148, 2,6-dimethylphenyl(3R,4R)-3-(3-((3-azabicyclo[3.1.0]hex-3-ylsulfonyl)amino)phenoxy)-4-methoxypyrrolidine-1-carboxylate], the “OX2R agonist activity (3 μM, %)” value is on record as 76%.

Regarding `Cc1ccc(C)c(C(=O)N2CC[C@H](Oc3cccc(CS(=O)(=O)N4CCCC4c4ccccn4)c3)C2)c1` (stereo partly drawn) [Example 25, (2,5-dimethylphenyl)((3S)-3-(3-(((2-(pyridin-2-yl)pyrrolidin-1-yl)sulfonyl)methyl)phenoxy)pyrrolidin-1-yl)methanone], the “OX2R agonist activity (3 μM, %)” value worked out at 29%.

As for `COC1CN(C(=O)c2cc(C)ccc2C)CC1Oc1cccc(NS(=O)(=O)N2C[C@@H]3C[C@H]3C2)c1` (relative stereo) [Example 73, trans-N-(3-((1-(2,5-dimethylbenzoyl)-4-methoxypyrrolidin-3-yl)oxy)phenyl)-3-azabicyclo[3.1.0]hexane-3-sulfonamide], the “OX2R agonist activity (3 μM, %)” value was found to be 91%.
